Test results reported in patent publication US20060063143A1, “Immortalized hypothalamic neuronal cell lines” (priority 2002, published 2006).

Tested on: immortalized hypothalamic subclones N-7, N-22, N-29
Experiment: Functional cAMP response of immortalized subclones to peptide stimulation (RIA)
Type: cell-based, mouse
Conditions: cell lines N-7, N-22 and N-29; 10^-7 M (100 nM) peptide, 15 minutes, IBMX 100 μM
Excerpt: The onset of mood disorders, such as depression or anxiety, involve the altered function of multiple loci in the brain that regulate emotionality, memory and motivation (41-43). However, the inability to describe a cellular and molecular aetiology of these conditions likely reflects, in part, the existence of critical neurological circuits not yet understood. A novel family of neuropeptides on the carboxy-terminus of the teneurin transmembrane proteins (32, 44) is implicated in neuronal communication. In one embodiment, they modulate stress responses and anxiety (data not shown) and likely play a role in some psychiatric illnesses. In another embodiment, they are implicated as modulators of cell cycle and cell proliferation. These sequences are called teneurin C-terminal-associated peptides (TCAP-1 to 4) [SEQ. ID NOs 1-9]. These peptides may also have a cleavable amidation signal at the C-terminus, such as “GRR” or “GKR”. […]
The functional cAMP response of the immortalized subclones to TCAP peptide stimulation was also assessed and the results are shown in FIG. 18. […] N-7, N-22 and N-29 were analyzed for the cAMP response to peptide stimulation. […] Cells were scraped from the plate and kept at −20° C. until the amounts of intracellular cAMP were determined in triplicate by RIA (Biotechnologies Inc., Stoughton, Mass.) according to the manufacturer's instructions.

rtTCAP-3: teneurin C-terminal-associated peptide, rainbow trout TCAP-3, SEQ ID NO 9 plus amidation signal GKR; stress-regulating peptide provided by Dr. D. Lovejoy (QLLSGRKVLGYDGYYVLSIEQYPELADSANNIQFLRQSEI; C-terminal GKR amidation signal; Trout TCAP3)
TCAP responsiveness of cell lines (cAMP response): responsive
